Laboratory results reported in patent publication US12043600B2, “Microbiocidal compounds” (SYNGENTA CROP PROTECTION AG, priority 2018, dated 2024).
Where two headings read alike, the source gives them in different places.

How the values were obtained:
[1] = test system: Puccinia recondita f. sp. tritici; assay: Puccinia recondita f. sp. tritici/Wheat/Leaf Disc Curative (Brown Rust); assay type: in vivo; details: foliar, wheat leaf disc curative, compared to untreated control
Method in brief: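 Curative leaf-disc test on wheat cv. Kanzler segments on agar, spore-inoculated and kept dark at 19° C, 75% rh; formulated compound in water applied 1 day after inoculation. Incubated at 19° C, 75% rh, 12 h light/12 h dark; percent disease control versus untreated scored 6-8 days after application.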

[2] = test system: Mycosphaerella graminicola (Septoria tritici); assay: Mycosphaerella graminicola (Septoria tritici)/Liquid Culture (Septoria Blotch); assay type: cell-based; details: Zymoseptoria tritici; 20 ppm; liquid culture; compared to untreated control
Method in brief: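 Conidia from cryogenic storage mixed into potato dextrose broth and added to microtiter wells already holding DMSO solutions of test compound. Activity expressed as percentage disease control.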

[3] = test system: Glomerella lagenarium (Colletotrichum lagenarium); assay: Glomerella lagenarium (Colletotrichum lagenarium)/Liquid Culture (Anthracnose); assay type: cell-based; details: Colletotrichum orbiculare, liquid culture, compared to untreated control
[4] = test system: Monographella nivalis (Microdochium nivale); assay: Monographella nivalis (Microdochium nivale)/Liquid Culture (Foot Rot Cereals); assay type: cell-based; details: liquid culture, compared to untreated control
Method in brief: (§1)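 Test compound dissolved in DMSO is dispensed first; nutrient broth (potato dextrose) carrying conidia thawed from cryogenic storage follows.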

[5] = test system: Blumeria graminis f. sp. tritici (Erysiphe graminis f. sp. tritici); assay: Blumeria graminis f. sp. tritici/Wheat/Leaf Disc Preventative (Powdery Mildew on Wheat); assay type: in vivo; details: foliar, wheat leaf disc preventative, compared to untreated control
Method in brief: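 Wheat cv. Kanzler leaf segments on agar sprayed with formulated compound, inoculated with powdery mildew 1 day later and held at 20° C, 60% rh (24 h dark, then 12 h light/12 h dark). Percent disease control versus untreated scored 6-8 days after application.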

Sclerotinia sclerotiorum = assay: Sclerotinia sclerotiorum/Liquid Culture (Cottony Rot); assay type: cell-based; details: liquid culture, compared to untreated control
Experimental: Mycelia fragments of a newly grown liquid culture of the fungus are directly mixed into nutrient broth (PDB potato dextrose broth). After placing a (DMSO) solution of test compound into a microtiter plate (96-well format) the nutrient broth containing the fungal material is added.

[6] = test system: Mycosphaerella arachidis (Cercospora arachidicola); assay: Mycosphaerella arachidis (Cercospora arachidicola)/Liquid Culture (Early Leaf Spot); assay type: cell-based; details: liquid culture, compared to untreated control
Method in brief: as §1

[7] = test system: Magnaporthe grisea (Pyricularia oryzae); assay: whole plant or invertebrate; assay type: in vivo; details: foliar, read-out: control of Magnaporthe grisea
Plasmopara viticola = assay: whole plant or invertebrate; assay type: in vivo; details: foliar, read-out: control of Plasmopara viticola
[8] = test system: Puccinia recondita f. sp. tritici; assay: Puccinia recondita f. sp. tritici/Wheat/Leaf Disc Preventative (Brown Rust); assay type: in vivo; details: foliar, 200 ppm, wheat leaf disc preventative, compared to untreated control, read-out: control of Puccinia recondita f. sp. tritici
Phytophthora infestans = assay: whole plant or invertebrate; assay type: in vivo; details: in Solanum lycopersicum, foliar, read-out: control of Phytophthora infestans
[9] = test system: Phaeosphaeria nodorum (Septoria nodorum); assay: Phaeosphaeria nodorum (Septoria nodorum)/Wheat/Leaf Disc Preventative (Glume Blotch); assay type: in vivo; details: Parastagonospora nodorum, foliar, wheat leaf disc preventative, compared to untreated control
Method in brief: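 Wheat cv. Kanzler leaf discs on agar were sprayed with formulated compound diluted in water and inoculated with P. nodorum spores 2 days later. Discs kept at 20 °C, 75% rh, 12 h light/dark; percent disease control versus untreated scored 5–7 days after application.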

Phakopsora pachyrhizi = assay: Phakopsora pachyrhizi/Soybean/Preventative (Soybean Rust); assay type: in vivo; details: 288 h
[10] = test system: Botryotinia fuckeliana (Botrytis cinerea); assay: Botryotinia fuckeliana (Botrytis cinerea)/Liquid Culture (Gray Mould); assay type: cell-based; details: liquid culture, compared to untreated control
Experimental: Conidia of the fungus from cryogenic storage are directly mixed into nutrient broth (Vogels broth). After placing a (DMSO) solution of test compound into a microtiter plate (96-well format), the nutrient broth containing the fungal spores is added.

[11] = test system: Thanatephorus cucumeris (Rhizoctonia solani); assay: Thanatephorus cucumeris (Rhizoctonia solani)/Liquid Culture (Foot Rot, Damping-Off); assay type: cell-based; details: liquid culture, compared to untreated control
Experimental: Mycelia fragments of a newly grown liquid culture of the fungus are directly mixed into nutrient broth (PDB potato dextrose broth). After placing a (DMSO) solution of the test compounds into a microtiter plate (96-well format), the nutrient broth containing the fungal material is added.

[12] = Photostability assay (Atlas Suntest); assay type: physicochemical; details: Suntest 750 W/m^2, spotted on microscope slides
Experimental: The testing method to measure the photostability data of each compound in table is D1 is as specifically described below. The objective of the photostability assay was to determine the stability of the individual test compounds in a strictly controlled and reproducible environment allowing a comparison of their photostability.
Method: Compounds were dissolved in methanol (HPLC grade) to give 1 g/L stock solutions. Compound stock solution (2 μl) was spotted onto microscope slides in a 3D printed holder and put into the Atlas Suntest. The spectral output power of the Suntest was set to 750 W/m^2, which is considered typical of the daily maximum (noon) irradiance level on a very bright British Summer day. At specific time points slides were removed from the Suntest and placed in 4D vials. Wash solvent made up of 50:40:10 H2O:MeCN:THF (1 mL) is then added to the vials and whirlimixed. The resulting solution is then subsampled to an HPLC vial to be analysed. A Waters UPLC system with Photodiode Array was used with a Waters reverse phase column (BEH C18, 100×2.1 mm×1.7 μm) and acetonitrile (HPLC grade) acidified water (0.2% formic acid) mobile phase at a flow rate of 0.6 mL/min. Peak detection was at the optimum wavelength and peak areas were used for quantification
Initial and subsequent measurements of peak area attributable to the test compound were used to provide a % parent remaining at 3 hours.

Pyrenophora teres = assay: Pyrenophora teres/Barley/Leaf Disc Preventative (Net Blotch); assay type: in vivo; details: foliar, 200 ppm, barley leaf disc preventative, compared to untreated control, read-out: control of Pyrenophora teres
Method in brief: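 Formulated compound, diluted in water, sprayed onto barley cv. Hasso leaf segments on agar; spore suspension inoculation followed 2 days after application. Results expressed as percentage disease control.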

Compound | pest or weed control at 200 ppm [1] [%] | inhibition of growth at 20 ppm [2] [%] | inhibition of growth at 20 ppm [3] [%] | inhibition of growth at 20 ppm [4] [%] | pest or weed control at 200 ppm [5] [%] | inhibition of growth at 20 ppm (Sclerotinia sclerotiorum) [%] | inhibition of growth at 20 ppm [6] [%] | pest or weed control at 200 ppm [7] [%] | pest or weed control at 200 ppm (Plasmopara viticola) [%] | pest or weed control at 200 ppm [8] [%] | pest or weed control at 200 ppm (Phytophthora infestans) [%] | pest or weed control at 200 ppm [9] [%] | melting point [°C] | inhibition of growth at 20 ppm [10] [%] | inhibition of growth at 20 ppm [11] [%] | % Parent Remaining @ 3 hrs [12] [%] | further results
CO/C=C(\Oc1cc(-n2ccc(C3CCC3)n2)c(F)cc1C)C(=O)OC [Compound E-18, methyl (Z)-2-[5-(3-cyclobutylpyrazol-1-yl)-4-fluoro-2-methyl-phenoxy]-3-methoxy-prop-2-enoate] | ≥ 80 | ≥ 80 | ≥ 80 | ≥ 80 | ≥ 80 | ≥ 80 | ≥ 80 | ≥ 80 | ≥ 80 | ≥ 80 | ≥ 80 |  |  |  |  |  | 
CO/C=C(\Oc1cc(-n2ccc(C(F)(F)F)n2)cc(C)c1C)C(=O)OC [Compound E-19, methyl (Z)-2-[2,3-dimethyl-5-[3-(trifluoromethyl)pyrazol-1-yl]phenoxy]-3-methoxy-prop-2-enoate] |  | ≥ 80 | ≥ 80 | ≥ 80 | ≥ 80 | ≥ 80 | ≥ 80 | ≥ 80 | ≥ 80 | ≥ 80 | ≥ 80 | ≥ 80 | 144 to 146 |  |  |  | 
CO/C=C(\Oc1cc(-n2ccc(C(C)C)n2)cc(C)c1C)C(=O)OC [Compound E-20, methyl (Z)-2-[5-(3-isopropylpyrazol-1-yl)-2,3-dimethyl-phenoxy]-3-methoxy-prop-2-enoate] | ≥ 80 | ≥ 80 | ≥ 80 | ≥ 80 |  | ≥ 80 | ≥ 80 | ≥ 80 | ≥ 80 | ≥ 80 | ≥ 80 | ≥ 80 | 103 to 105 |  |  |  | pest or weed control at 200 ppm (Phakopsora pachyrhizi; foliar, soybean leaf disc preventative, compared to untreated control, read-out: control of Phakopsora pachyrhizi): ≥ 50%
CCCc1ccn(-c2ccc(C)c(O/C(=C\OC)C(=O)OC)c2)n1 [Compound E-40, methyl (Z)-3-methoxy-2-[2-methyl-5-(3-propylpyrazol-1-yl)phenoxy]prop-2-enoate] |  | ≥ 80 | ≥ 80 | ≥ 80 | ≥ 80 |  | ≥ 80 | ≥ 80 | ≥ 80 |  | ≥ 80 | ≥ 80 | 91 to 94 | ≥ 80 | ≥ 80 | 65 | pest or weed control at 0.6 ppm (Phakopsora pachyrhizi; Phakopsora pachyrhizi (Soybean rust), 0.6 ppm): 10%; pest or weed control at 2 ppm (Phakopsora pachyrhizi; Phakopsora pachyrhizi (Soybean rust), 2 ppm): 35%; pest or weed control at 6 ppm (Phakopsora pachyrhizi; Phakopsora pachyrhizi (Soybean rust), 6 ppm): 90%; pest or weed control at 20 ppm (Phakopsora pachyrhizi; Phakopsora pachyrhizi (Soybean rust), 20 ppm): 95%; pest or weed control at 60 ppm (Phakopsora pachyrhizi; Phakopsora pachyrhizi (Soybean rust), 60 ppm): 100%; pest or weed control at 200 ppm (Phakopsora pachyrhizi; Phakopsora pachyrhizi (Soybean rust), read-out: control (%)): 100%
CO/C=C(\Oc1cc(-n2ccc(C(F)(F)F)n2)c(F)cc1C)C(=O)OC [Compound E-42, methyl (Z)-2-[4-fluoro-2-methyl-5-[3-(trifluoromethyl)pyrazol-1-yl]phenoxy]-3-methoxy-prop-2-enoate] | ≥ 80 | ≥ 80 | ≥ 80 | ≥ 80 | ≥ 80 |  | ≥ 80 | ≥ 80 | ≥ 80 | ≥ 80 |  | ≥ 80 | 104 to 108 | ≥ 80 | ≥ 80 | 24 | pest or weed control at 200 ppm (Pyrenophora teres): ≥ 80%
CCC(C)c1ccn(-c2ccc(C)c(O/C(=C\OC)C(=O)OC)c2)n1 (stereo not drawn) [Compound E-44, methyl (Z)-3-methoxy-2-[2-methyl-5-(3-sec-butylpyrazol-1-yl)phenoxy]prop-2-enoate] |  | ≥ 80 | ≥ 80 | ≥ 80 | ≥ 80 |  | ≥ 80 | ≥ 80 | ≥ 80 |  | ≥ 80 | ≥ 80 | 110 to 113 | ≥ 80 | ≥ 80 | 69 | pest or weed control at 200 ppm (Pyrenophora teres): ≥ 80%
CO/C=C(\Oc1cc(-n2ccc(C3CC3)n2)ccc1C)C(=O)OC [Compound E-101, methyl (Z)-2-[5-(3-cyclopropylpyrazol-1-yl)-2-methyl-phenoxy]-3-methoxy-prop-2-enoate] |  | ≥ 80 | ≥ 80 | ≥ 80 | ≥ 80 |  | ≥ 80 |  | ≥ 80 |  | ≥ 80 | ≥ 80 | 115 to 118 | ≥ 80 | ≥ 80 | 38 | 
CO/C=C(\Oc1cc(-n2cc(Br)c(C)n2)ccc1C)C(=O)OC [Compound E-117, methyl (Z)-2-[5-(4-bromo-3-methyl-pyrazol-1-yl)-2-methyl-phenoxy]-3-methoxy-prop-2-enoate] | ≥ 80 | ≥ 80 | ≥ 80 | ≥ 80 | ≥ 80 | ≥ 80 | ≥ 80 |  | ≥ 80 | ≥ 80 |  |  | 120 to 122 |  |  |  | 
CCCCc1cnn(-c2ccc(C)c(O/C(=C\OC)C(=O)OC)c2)n1 [Compound F-3, methyl (Z)-2-[5-(4-butyltriazol-2-yl)-2-methyl-phenoxy]-3-methoxy-prop-2-enoate] | ≥ 80 | ≥ 80 | ≥ 80 | ≥ 80 |  | ≥ 80 | ≥ 80 | ≥ 80 | ≥ 80 | ≥ 80 |  | ≥ 80 | 68 to 70 |  |  |  | 
